Test results reported in patent US20150011566A1, “N-PHENYLPIPERAZINE DERIVATIVES THAT ARE ANTAGONISTS OF A1A, A1D ADRENOCEPTORS AND 5-HT1A RECEPTORS FOR THE TREATMENT OF BENIGN PROSTATE HYPERPLASIA, PHARMACEUTICAL COMPOSITIONS CONTAINING THE SAME” (UNIVERSIDADE FEDERAL DO RIO DE JANEIRO-UFRJ, priority 2012, published 2015).
Structures can show the parent of a compound that is named as a salt. Marks after values point to notes of the source that are not given here. Each block holds one molecule with its values, some of them ahead of it.

Key:
5-HT1A receptors [1] = target: T1, 5-HT1A receptors (Homo sapiens, UniProt P08908); assay: Cell proliferation in vitro, DU-145 cells stimulated with 5-HT (MTT); assay type: cell-based; conditions: 48 h
T1 construct: endogenous in cells; host or cells: DU-145
T1 sequence (P08908 1-422): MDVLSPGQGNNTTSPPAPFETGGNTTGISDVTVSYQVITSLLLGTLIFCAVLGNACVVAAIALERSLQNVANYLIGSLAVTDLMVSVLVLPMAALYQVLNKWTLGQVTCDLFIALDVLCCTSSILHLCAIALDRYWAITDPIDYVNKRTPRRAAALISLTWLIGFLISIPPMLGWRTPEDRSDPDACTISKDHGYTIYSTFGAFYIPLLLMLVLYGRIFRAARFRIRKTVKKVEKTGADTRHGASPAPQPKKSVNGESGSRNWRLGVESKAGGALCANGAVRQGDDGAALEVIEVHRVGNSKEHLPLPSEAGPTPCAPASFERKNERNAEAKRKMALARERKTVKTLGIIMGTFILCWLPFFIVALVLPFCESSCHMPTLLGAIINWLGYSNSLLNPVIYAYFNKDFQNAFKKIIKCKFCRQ
Protocol: (§1) Human prostate cancer cells (DU-145) were cultured in medium (RPMI 1640) until confluence. Then the cells were dissociated, plated (5×10^3 cells/well) and maintained in medium free of fetal bovine serum for 24 hours. […] Cell proliferation was assessed by using the MTT technique (MOSMANN, T. Immunol Methods. 16; 65 (1-2):55-63, 1983).

5-HT1A receptors [2] = target: T2, 5-HT1A receptors (Rattus norvegicus, UniProt P19327); assay: Binding of [3H]p-MPPF with GTP to 5-HT1A receptors; intrinsic activity (Ki low/Ki high); conditions: Table 13; from Ki low/Ki high
T2 construct: Intrinsic Activity at Native 5-HT1A Receptors; from tissue; host or cells: rat hippocampus membranes
T2 sequence (P19327 1-422): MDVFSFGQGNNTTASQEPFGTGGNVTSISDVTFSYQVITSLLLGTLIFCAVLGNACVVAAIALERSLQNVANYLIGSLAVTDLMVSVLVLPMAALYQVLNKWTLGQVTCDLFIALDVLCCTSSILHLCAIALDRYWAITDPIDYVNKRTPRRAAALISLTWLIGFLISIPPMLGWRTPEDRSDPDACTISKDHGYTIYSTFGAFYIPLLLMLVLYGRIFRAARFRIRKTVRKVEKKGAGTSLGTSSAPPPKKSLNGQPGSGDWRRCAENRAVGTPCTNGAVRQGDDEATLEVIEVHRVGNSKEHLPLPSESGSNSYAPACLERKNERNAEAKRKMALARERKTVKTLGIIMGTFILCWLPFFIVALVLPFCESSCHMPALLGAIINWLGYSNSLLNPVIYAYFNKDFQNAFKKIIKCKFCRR
Protocol: Membrane preparations of rat hippocampus according to previously described by HALL et al (1985) and PEROUTKA (1986) were performed. The homogenization and centrifugation steps were performed identically to that described above for receptors α2A and 5-HT2A receptors.
The binding assays for the 5-HT1A receptors were performed as described previously in the literature and previously standardized in the laboratory through saturation experiments. […] (solvent for dilution of LDT's) for the determination of total binding, or 50 μL non-radioative serotonin at 10 μM to determine the non-specific binding (final volume of 500 μL). Assays were performed in triplicate. […] Assays were performed in triplicate.
After the incubation period, the reaction was stopped by adding 4 ml of ice-cold solution containing 5 mM Tris (pH 7.4), followed by vacuum filtration on glass fiber filter (GMF 3, Filtrak®) previously soaked with solution 0.5% polyethylenoimine. The filters were washed three times with 4 mL of ice-cold solution containing 5 mM Tris (pH 7.4) under vacuum to remove all free radioligand. Then the filters were dried and placed in vials containing 5 ml scintillation fluid (composition: 4% PPO, 0.1% POPOP w/p in toluene). The radioactivity retained on the filters was then determined in a liquid scintillation counter (Packard Tri-Carb 1600 TR). […] For these receptors were also determined the […] and Ki parameters.
The GTP presence displaces the GPCR to a state of low affinity (Lahti et al, 1992). The intrinsic activity of a substance can be estimated using GPCR agonist or antagonist radioligand appropriate to define the affinity of the substance in the state of high and low affinity receptor, respectively.

α1D receptors = target: T3, α1D receptors (Homo sapiens, UniProt P25100); assay: Cell proliferation in vitro, DU-145 cells stimulated with phenylephrine (MTT); assay type: cell-based; conditions: 48 h
T3 construct: endogenous in cells; host or cells: DU-145
T3 sequence (P25100 1-572): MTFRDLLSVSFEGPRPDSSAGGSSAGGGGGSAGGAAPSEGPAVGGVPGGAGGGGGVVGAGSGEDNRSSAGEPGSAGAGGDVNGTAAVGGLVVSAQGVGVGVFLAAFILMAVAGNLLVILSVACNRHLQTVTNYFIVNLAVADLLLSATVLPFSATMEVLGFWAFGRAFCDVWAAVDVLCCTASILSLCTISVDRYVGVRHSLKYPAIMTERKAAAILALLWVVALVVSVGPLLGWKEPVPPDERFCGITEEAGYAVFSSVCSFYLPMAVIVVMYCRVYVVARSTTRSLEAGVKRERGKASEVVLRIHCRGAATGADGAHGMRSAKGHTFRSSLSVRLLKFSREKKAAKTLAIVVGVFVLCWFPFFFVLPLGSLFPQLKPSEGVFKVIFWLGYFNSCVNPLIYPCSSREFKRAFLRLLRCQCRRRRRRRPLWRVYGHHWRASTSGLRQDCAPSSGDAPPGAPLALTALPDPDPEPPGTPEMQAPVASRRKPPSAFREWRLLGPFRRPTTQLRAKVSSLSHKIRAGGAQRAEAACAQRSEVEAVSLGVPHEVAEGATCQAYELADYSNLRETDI
Protocol: as §1

α1D adrenoceptors = target: T4, α1D adrenoceptors (Rattus norvegicus, UniProt P23944); assay: Phenylephrine-induced contraction inhibition in rat aorta (isometric contraction, Schild KB); assay type: cell-based; conditions: ratio of EC50 in presence and absence of test substance, 10 nM
T4 construct: the rat thoracic aorta corresponds to a tissue expressing mainly α1D-adrenoceptors; from tissue; host or cells: rat thoracic aorta rings
T4 sequence (P23944 1-561): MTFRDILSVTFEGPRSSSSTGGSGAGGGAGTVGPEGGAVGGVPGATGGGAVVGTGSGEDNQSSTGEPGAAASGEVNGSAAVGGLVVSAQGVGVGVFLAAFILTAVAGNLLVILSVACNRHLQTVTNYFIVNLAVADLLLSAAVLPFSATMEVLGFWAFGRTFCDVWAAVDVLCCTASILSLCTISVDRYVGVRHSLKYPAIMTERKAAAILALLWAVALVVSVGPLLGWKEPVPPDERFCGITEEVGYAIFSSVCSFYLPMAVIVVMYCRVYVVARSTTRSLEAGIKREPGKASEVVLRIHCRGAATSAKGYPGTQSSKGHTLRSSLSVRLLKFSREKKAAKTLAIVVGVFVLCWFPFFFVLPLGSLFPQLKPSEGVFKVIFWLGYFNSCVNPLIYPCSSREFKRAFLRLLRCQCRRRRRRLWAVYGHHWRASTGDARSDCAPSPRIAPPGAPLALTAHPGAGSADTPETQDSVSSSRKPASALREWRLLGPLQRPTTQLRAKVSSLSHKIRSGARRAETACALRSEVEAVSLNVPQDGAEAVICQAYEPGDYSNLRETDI
Protocol: Isometric contraction assays were performed using Male Wistar rats, aged 2.5-3 months euthanized as described above. The thoracic aorta (tissue enriched in functional α1D adrenergic receptors) was removed, free from adjacent connective and adipose tissues cut in 3 mm segments. […] The aort segments were then subjected to a preload of 20 mN per 60 minutes. After recovery of tissues maintained for 1 hour at rest, it was performed a contraction induced by phenylephrine (PE) 1 μM (α1 adrenergic receptors selective agonist). In this plateau contraction, in order to promote endothelium-dependent relaxation resulting from the activation of the enzyme endothelial nitric oxide synthase (eNOS) and subsequent release of nitric oxide (NO), acetylcholine 1 μM was added. Rings that relaxed at least 80% were considered to have intact endothelium, were used.
Then the preparation was washed and allowed to stand for 1 hour in order to recover the tissue. Then it was performed cumulative curves to phenylephrine (10^−9 to 10^−5 M) in the presence of propranolol 1 μM (β-adrenoceptor blocker receptors) before and after incubation for 1 hour of the LDT's at 10 or 50 nM. In parallel, a temporal control was performed to rule out any artifacts on the measured contraction, where was added only the vehicle (ultrapure water Milli Q®) instead of the substance to be tested. Strictly following the same protocol as the other tanks wherein it was added the LDT's.
The data were scanned in MacLab 8S system connected to the isometric tension transducer Grass FT-03, which recorded the voltage variation in milinewtons (mN) generated throughout the analysis. The digitized data were then analyzed by Chart 3.4/s software program (MacLab, Inc., USA). In the pharmacological screening process, the initial concentration of the used LDT's was 50 nM, which is considered as cut concentration, i.e., substances that have no effect at this concentration would not investigated in this test. […] The ratio of the EC50 value in these two conditions (with and without LDT) matches the third parameter, called “concentration ratio” (or RC).
log(CR−1)=log [B]−log KB (Equation 1)
Where CR=concentration ratio (EC′50/EC50); [B]=‘B’ antagonist concentration; KB=equilibrium dissociation constant of the antagonist ‘B’.
With this in view, the functional tests of contraction in isolated organ model were performed using these tissues. […] Similarly, targeting to rule out any artifacts on the measured contraction, a time control was performed where only the vehicle was added (ultrapure Mili Q® water) in place of the substance to be tested, strictly following the same protocol as the other vats were added to the LDT's (FIG. 1).

prostate cells = conditions: DIZEYI et al. Prostate 59 (3): 328-336, 2004; cited from earlier work
α2A receptors = target: T5, α2A receptors (Rattus norvegicus, UniProt P22909); assay: Binding of [3H]RX821002 to α2A receptors (rat cortex membranes); conditions: saturation assay
T5 construct: Membrane preparations of rat cortex as described previously in the literature were performed; from tissue; host or cells: rat cortex membranes
T5 sequence (P22909 1-465): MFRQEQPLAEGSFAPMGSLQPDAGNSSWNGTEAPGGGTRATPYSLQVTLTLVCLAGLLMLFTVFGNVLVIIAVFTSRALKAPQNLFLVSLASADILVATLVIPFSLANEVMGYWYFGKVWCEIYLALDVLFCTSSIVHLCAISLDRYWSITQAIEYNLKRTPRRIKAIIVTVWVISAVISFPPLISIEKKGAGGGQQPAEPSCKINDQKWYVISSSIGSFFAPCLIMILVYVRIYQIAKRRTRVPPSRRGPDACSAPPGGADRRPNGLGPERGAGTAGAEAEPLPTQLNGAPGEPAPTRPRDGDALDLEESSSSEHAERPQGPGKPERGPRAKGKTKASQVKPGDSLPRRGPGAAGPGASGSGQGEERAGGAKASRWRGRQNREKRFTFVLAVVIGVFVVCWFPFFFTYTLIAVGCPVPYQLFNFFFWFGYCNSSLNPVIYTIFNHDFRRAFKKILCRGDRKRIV

SMILES: CCOc1ccccc1OCCN[C@H](C)Cc1ccc(OC)c(S(N)(=O)=O)c1 [tamsulosin]
inhibition of cell proliferation (prostate cells): does not inhibit cell proliferation

SMILES: COC1(C2=NCCN2)COc2ccccc2O1 (centres unmarked) [[3H] RX821002]
Kd (α2A receptors): 2.05 ± 0.28 nM

SMILES: COc1ccccc1N1CCN(CCN(C(=O)c2ccc(F)cc2)c2ccccn2)CC1 [p-MPPF, reference compound]
Proliferation percentage in relation to basel (100%) in the presence of LDT's, 5HT1A (5-HT1A receptors [1]; DU-145, 5-HT 1 μM + test substance 50 nM): 88.9 ± 11.5^b %

Continued, values first:

Proliferation percentage in relation to basel (100%), 5-HT1A (5-HT1A receptors [1]; DU-145, stimulus alone, 5-HT 1 μM): 137.1 ± 5.2%
pharmacological classification (5-HT1A receptors [2]): full antagonist
SMILES: Cl.NCCc1c[nH]c2ccc(O)cc12 [5-HT, 5-hydroxytryptamine hydrochloride]

Proliferation percentage in relation to basel (100%) in the presence of LDT's, α1D (α1D receptors; DU-145, phenylephrine 3 μM + test substance 50 nM): 90.98 ± 11.7^a %
CR ± EPM (α1D adrenoceptors): 4.4 ± 0.8
SMILES: COc1ccccc1N1CCN(CCN2C(=O)CC3(CCCC3)CC2=O)CC1 [BMY7378, reference compound]

Proliferation percentage in relation to basel (100%), α1D (α1D receptors; DU-145, stimulus alone, phenylephrine 3 μM): 138.8 ± 2.6%
SMILES: CNC[C@H](O)c1cccc(O)c1 [Phenylephrine, (R)-(−)-phenylephrine hydrochloride, reference compound]
